Patent EP3826985B1, “DENDRIMER-TYPE COMPOUNDS, METHODS FOR PRODUCING SAME, AND USES THEREOF” (Université De Reims Champagne-Ardenne, priority 2018, dated 2020)

Test: Metal cation trapping by dendrimer (dialysis, ICP-AES)
Method: Une solution aqueuse contenant l'ion métallique (6 mL, Cf = 4.10^-5 mol/L) a été mélangée avec une solution aqueuse de II.6 (6 mL; 2.10^-6 mol/L); la solution résultante a été agitée pendant 2h à une vitesse d'agitation de 300 tours/min à température ambiante.
Une dialyse d'une heure a été réalisée en utilisant une membrane d'ester de cellulose (Cutoff 1000) dans de l'eau distillée (1L). Pour déterminer la quantité d'ion métallique extraite par le dendrimère, 10 mL de l'eau de dialyse ont été prélevés pour l'analyse ICP-AES (Spectrométrie à plasma à couplage inductif - Spectrométrie d'Emission Atomique).
L'analyse de l'eau de dialyse par ICP-AES (Thermo Scientific, iCAP 6000 Séries) a permis d'obtenir la quantité de métal résiduelle. La quantité d'ions (M^n+) présente dans la phase dendrimère a été obtenue par différence entre la quantité initiale et la quantité résiduelle.
Le pourcentage de rétention (% R) a été calculé selon l'expression suivante : %R = (n(Maq(initial))−n(Maq(final)))/(n Maq(initial)) × 100 [formula] avec n (Maq(initial)) et n (Maq(final)), les nombres de moles d'ions métalliques respectivement dans la solution de départ et dans l'eau de dialyse après extraction.

## OCC(O)COCC(COCC(COCC(COCC(COCC(COCC(O)CO)OCC(O)CO)OCC(COCC(O)CO)OCC(O)CO)OCC(COCC(COCC(O)CO)OCC(O)CO)OCC(COCC(O)CO)OCC(O)CO)OCC(COCC(O)CO)OCC(O)CO)OCC(O)CO (stereo not shown) [II.6]
Ag^+, Rapport n (Maq (initial)) / n (II.6) = 104,5
  % R: 88%
Cd^2+, Rapport n (Maq (initial)) / n (II.6) = 73
  % R: 95,5%
Ce^3+, Rapport n (Maq (initial)) / n (II.6) = 93
  % R: >95%
Cu^2+, Rapport n (Maq (initial)) / n (II.6) = 63,6
  % R: 75%
Hg^2+, Rapport n (Maq (initial)) / n (II.6) = 140
  % R: 85%
Ni^2+, Rapport n (Maq (initial)) / n (II.6) = 85,5
  % R: 89%
Pb^2+, Rapport n (Maq (initial)) / n (II.6) = 77
  % R: 99%
